Data from PubChem BioAssay (NCI).
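At the GI50, growth is halved. TGI: concentration producing complete growth inhibition.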

What was measured:
Experiment in all cases: growth of human tumour cells (NCI), 384-well format
[1] = system: M14 melanoma
[2] = system: SK-MEL-2 melanoma
[3] = system: HCT-116 colon
[4] = system: MDA-MB-468 breast
[5] = system: SNB-75 CNS
[6] = system: SF-295 CNS
[7] = system: RXF 393 renal
[8] = system: NCI-H23 lung
[9] = system: SK-MEL-28 melanoma
[10] = system: SK-OV-3 ovarian
[11] = system: PC-3 prostate
[12] = system: COLO 205 colon
[13] = system: 786-0 renal
[14] = system: SNB-19 CNS
[15] = system: HOP-62 NSCLC
[16] = system: CCRF-CEM leukemia
[17] = system: BT-549 breast
[18] = system: OVCAR-5 ovarian
[19] = system: HL-60(TB) leukemia
[20] = system: A498 renal
[21] = system: HCC-2998 colon
[22] = system: CAKI-1 renal
[23] = system: TK-10 renal
[24] = system: NCI-H522 lung
[25] = system: HOP-92 NSCLC
[26] = system: OVCAR-4 ovarian
[27] = system: K-562 leukemia
[28] = system: NCI/ADR-RES ovarian
[29] = system: SN12C renal
[30] = system: HT29 colon

In the case of O=C1Cc2cc(C(=O)NC3C[C@H]4CC[C@@H](C3)N4S(=O)(=O)CC3CCN(CCCC(F)(F)F)CC3)c(Cl)cc2N1 (some centres undefined), the TGI [1] is reported as greater than 100 µM, the GI50 [2] is reported as greater than 87 µM and the TGI [2] is reported as greater than 100 µM. The GI50 [3] was greater than 42 µM, the TGI [3] was greater than 56.5 µM and the GI50 [4] was 25.5 µM. For the same compound, the TGI [4] was 57.7 µM, the GI50 [5] was greater than 100 µM and the TGI [5] was greater than 100 µM. The GI50 [6] was greater than 100 µM, the TGI [6] was greater than 100 µM and the GI50 [7] was greater than 78.5 µM. It also gave a TGI [7] greater than 100 µM, a GI50 [8] greater than 52.9 µM and a TGI [8] greater than 71.2 µM. It also gave a GI50 [9] greater than 100 µM, a TGI [9] greater than 100 µM and a GI50 [10] greater than 47.3 µM. For the same compound, the TGI [10] was greater than 72.8 µM, the GI50 [11] was greater than 52.1 µM and the TGI [11] was greater than 74.7 µM. For the same compound, the GI50 [12] was greater than 78 µM, the TGI [12] was greater than 100 µM and the GI50 [13] was greater than 100 µM. It also gave a TGI [13] greater than 100 µM, a GI50 [14] greater than 49.8 µM and a TGI [14] greater than 74.9 µM. For the same compound, the GI50 [15] was greater than 49.6 µM, the TGI [15] was greater than 73.6 µM and the GI50 [16] was greater than 43.8 µM. For the same compound, the TGI [16] was greater than 57.7 µM, the GI50 [17] was greater than 49.1 µM and the TGI [17] was greater than 73.8 µM. It also gave a GI50 [18] greater than 49.9 µM, a TGI [18] greater than 73.1 µM and a GI50 [19] greater than 46.1 µM. It also gave a TGI [19] greater than 60.4 µM, a GI50 [20] greater than 100 µM and a TGI [20] greater than 100 µM. The GI50 [21] was greater than 100 µM, the TGI [21] was greater than 100 µM and the GI50 [22] was greater than 46.2 µM. It also gave a TGI [22] greater than 65.5 µM, a GI50 [23] greater than 46.4 µM and a TGI [23] greater than 65.3 µM. The GI50 [24] was greater than 44.7 µM, the TGI [24] was greater than 58.9 µM and the GI50 [25] was greater than 100 µM. For the same compound, the TGI [25] was greater than 100 µM, the GI50 [26] was greater than 100 µM and the TGI [26] was greater than 100 µM. It also gave a GI50 [27] greater than 42.3 µM, a TGI [27] greater than 56.5 µM and a GI50 [28] greater than 100 µM. It also gave a TGI [28] greater than 100 µM, a GI50 [29] greater than 62.4 µM and a TGI [29] greater than 100 µM. It also gave a GI50 [30] greater than 100 µM and a TGI [30] greater than 100 µM.
